Experimental data published in patent publication US11351268B2, “FGF21 C-terminal peptide optimization” (INDIANA UNIVERSITY RESEARCH AND TECHNOLOGY CORPORATION, priority 2016, dated 2022).
Residue numbers refer to the chain shown, from its start. In names and notes the source's numbering stands. No end group written: not given here.

How the values were obtained:
[1] = target: T1, Klotho β (KLB) (Homo sapiens, UniProt Q86Z14); assay: cell-based; format: cell-based; conditions: for Emax: Table 1, native sequence = 100% response, read-out: % max activity
T1 construct: expressed in transfected cells; host or cells: HEK 293T (ATCC), pooled Zeocin-selected cells stably expressing hKLB from pcDNA3.1(+)
T1 sequence (Q86Z14 1-1044): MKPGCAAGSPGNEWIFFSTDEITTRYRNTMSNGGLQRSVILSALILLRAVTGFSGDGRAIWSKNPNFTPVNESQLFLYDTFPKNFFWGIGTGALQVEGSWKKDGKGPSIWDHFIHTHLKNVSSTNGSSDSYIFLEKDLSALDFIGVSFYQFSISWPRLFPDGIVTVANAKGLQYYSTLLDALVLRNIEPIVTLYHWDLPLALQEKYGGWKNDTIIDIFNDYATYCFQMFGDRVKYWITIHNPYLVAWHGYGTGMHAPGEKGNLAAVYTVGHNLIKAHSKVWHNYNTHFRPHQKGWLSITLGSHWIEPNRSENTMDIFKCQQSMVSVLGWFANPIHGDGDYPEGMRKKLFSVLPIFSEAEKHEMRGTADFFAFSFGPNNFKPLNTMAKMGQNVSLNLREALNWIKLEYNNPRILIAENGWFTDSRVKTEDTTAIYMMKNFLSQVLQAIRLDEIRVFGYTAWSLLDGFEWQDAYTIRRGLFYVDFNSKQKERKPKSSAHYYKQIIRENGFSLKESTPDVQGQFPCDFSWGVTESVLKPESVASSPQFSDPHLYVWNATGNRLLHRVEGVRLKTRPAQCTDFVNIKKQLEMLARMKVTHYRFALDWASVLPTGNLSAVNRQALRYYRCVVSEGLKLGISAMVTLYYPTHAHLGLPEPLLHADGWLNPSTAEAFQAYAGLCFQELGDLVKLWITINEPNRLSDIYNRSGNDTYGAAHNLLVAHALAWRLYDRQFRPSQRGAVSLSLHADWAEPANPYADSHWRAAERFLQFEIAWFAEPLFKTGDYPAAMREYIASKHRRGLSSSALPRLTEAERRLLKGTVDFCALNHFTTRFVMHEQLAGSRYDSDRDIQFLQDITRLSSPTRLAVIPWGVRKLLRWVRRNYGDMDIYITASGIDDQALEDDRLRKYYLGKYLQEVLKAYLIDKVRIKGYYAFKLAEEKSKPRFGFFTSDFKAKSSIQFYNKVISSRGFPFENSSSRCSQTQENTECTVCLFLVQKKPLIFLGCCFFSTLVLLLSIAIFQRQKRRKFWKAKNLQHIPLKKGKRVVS
Method: (§1) Cells were cultured in 10% Fetal Bovine Serum containing DMEM High glucose GLUTAMAX® at 37 C, 95% humidity, 5% CO2. For generating the cell line with stable expression, human KLB gene was synthesized by Genscript and subcloned into pcDNA3.1(+) with ZEOCIN® resistance vector (INVITROGEN®) by NheI and NotI restriction enzyme sites. HEK 293T cells were obtained from ATCC and were transiently transfected at 80% confluency using Lipofectamine 3000 (Invitrogen). Selection for KLB-expressing cells was initiated 48 hours post-transfection in the growth media containing 100 μg/ml of ZEOCIN® (Gibco) and continued for 4 weeks with fresh media added every third day. Human KLB expression in pooled cells was confirmed by Western blot and a functional FGF21 MAPK phosphorylation assay.
(§2) 293 HEK cells expressing hKLB were plated to 90% confluency in 96 well plates coated with poly-D-Lysine. Cells were serum starved for three hours in 0.1% BSA containing media prior to stimulation with protein and/or an antagonist peptide for ten minutes at 37° C. The cell lysate was used for the detection of phospho-Erk1/2 levels by AlphaSureFire kit using the prescribed protocol. The degree of biochemical activation was recorded and analyzed using Origin software by logistic curve fitting. Tests at each concentration were done in triplicates, and the standard deviation is as shown in the graphs. The calculation of maximal activities was done keeping the FGF21 157-181 or FGF19 169-194 peptide activity as standard. The difference between the Erk1/2 phosphorylation signal for the highest (10 μM) and the lowest (0 μM) tested dose for native peptide was considered as 100% and accordingly all the other values were assigned.

[2] = system: FGF21 receptor; assay: Erk1/2 phosphorylation assay: agonist activity in 293T HEK hKLB cells; format: cell-based, human; conditions: for EC50: read-out: EC-50; for IC50: full length FGF21 analogs, tested in triplicate
Method: as §1, §2

[3] = Table 1, alanine scan of FGF21 25mer, antagonism of native FGF21 response
[4] = Table 2(A), FGF21 157-181 alanine mutants, ≥95% maximal activity
[5] = Table 5, FGF19/FGF21 chimeric peptides
[6] = Table 6, derivatives of SEQ ID NO: 180
[7] = FIGS. 9A/9B, full length proteins, Erk1/2 phosphorylation

Molecule: PPDVGSSDPLAMVGPSQGRSPSYAS-NH2 (C-terminus assumed) [Peptide A11, PPDVGSSDPLAMVGPSQGRSPSYAS]
- IC50 [1, 3]: 102 nM
- Emax [1]: 98%
- IC50 [1, 4]: 150 nM

Molecule: PPDVGSSDPLSMAGPSQGRSPSYAS-NH2 (C-terminus assumed) [Peptide A13, PPDVGSSDPLSMAGPSQGRSPSYAS]
- Emax [1]: 87.9%

Molecule: PPDVGSSDPLSMVAPSQGRSPSYAS-NH2 (C-terminus assumed) [Peptide A14, PPDVGSSDPLSMVAPSQGRSPSYAS]
- % max activity [1]: 97.7%
- IC50 [1, 4]: 130 nM

Molecule: PPDVGSSDPLSMVGASQGRSPSYAS-NH2 (C-terminus assumed) [Peptide A15, PPDVGSSDPLSMVGASQGRSPSYAS]
- Emax [1]: 93.9%
- IC50 [1, 4]: 120 nM

Molecule: PPDVGSSDPLSMVGPAQGRSPSYAS-NH2 (C-terminus assumed) [Peptide A16, PPDVGSSDPLSMVGPAQGRSPSYAS]
- IC50 [1, 3]: 120 nM
- Emax [1]: 101%

Molecule: PPDVGSSDPLSMVGPSAGRSPSYAS-NH2 (C-terminus assumed) [Peptide A17, PPDVGSSDPLSMVGPSAGRSPSYAS]
- % max activity [1]: 99.7%
- IC50 [1, 3]: 139 nM
- IC50 [1, 4]: 130 nM

Molecule: PPDVGSSDPLSMVGPSQARSPSYAS-NH2 (C-terminus assumed) [Peptide A18, PPDVGSSDPLSMVGPSQARSPSYAS]
- % max activity [1]: 102.9%
- IC50 [1, 3]: 139 nM
- IC50 [1, 4]: 150 nM

Molecule: PPDVGSSDPLSMVGPSQGASPSYAS-NH2 (C-terminus assumed) [Peptide A19, PPDVGSSDPLSMVGPSQGASPSYAS]
- IC50 [1, 3]: 102 nM
- Emax [1]: 100%

Molecule: PPDVGSSDPLSMVGPSQGRAPSYAS-NH2 (C-terminus assumed) [Peptide A20, PPDVGSSDPLSMVGPSQGRAPSYAS]
- Emax [1]: 73.5%

Molecule: PPDVGSSDPLSMVGPSQGRSASYAS-NH2 (C-terminus assumed) [Peptide A21, PPDVGSSDPLSMVGPSQGRSASYAS]
- Emax [1]: 70.5%

Molecule: PPDVGSSDPLSMVGPSQGRSPAYAS-NH2 (C-terminus assumed) [Peptide A22, PPDVGSSDPLSMVGPSQGRSPAYAS]
- Emax [1]: 78.5%

Molecule: PPDVGSSDPLSMVGPSQGRSPSAAS-NH2 (C-terminus assumed) [Peptide A23, PPDVGSSDPLSMVGPSQGRSPSAAS]
- % max activity [1]: 73.6%

Molecule: PPDVGSSDPLSMVGPSQGRSPSYAA-NH2 (C-terminus assumed) [Peptide A25, PPDVGSSDPLSMVGPSQGRSPSYAA]
- % max activity [1]: 99.0%

Molecule: PPDVGSSDPLSMVGPSQGRSPSYAS-NH2 [Peptide C25, PPDVGSSDPLSMVGPSQGRSPSYAS, reference compound]
- % max activity [1]: 100.0%
- IC50 ([1]; FIG. 8B, FGF21 and FGF19 C-terminal peptides): 40 nM
- IC50 [1, 5]: 116 ± 4 nM

Molecule: PPDVGSSDPLSMVTGLEAVRSPSFEA-NH2 (C-terminus assumed) [Peptide 0435]
- IC50 [1, 5]: 65.1 ± 4.8 nM

Molecule: PPDVLSMDPFGLVGPSQGRSPSFEA-NH2 (C-terminus assumed) [Peptide 0481]
- IC50 [1, 6]: 2.6 ± 0.8 nM

Molecule: PPDVSSMDPFGLVGPSQGRSPSFEA-NH2 (C-terminus assumed) [Peptide 0482]
- IC50 [1, 6]: 3 ± 1.3 nM

B1: FGF21-19 K194A: chimeric analog: core of FGF21 1-156 and an extension of the FGF19 169-194 K194A peptide (protein)
chain: HPIPDSSPLLQFGGQVRQRYLYTDDAQQTEAHLEIREDGTVGGAADQSPESLLQLKALKPGVIQILGVKTSRFLCQRPDGALYGSLHFDPEACSFRELLLEDGYNVYQSEAHGLPLHLPGNKSPHRDPAPRGPARFLPLPGLPPALPEPPGILAPQPLETDSMDPFGLVTGLEAVRSPSFEA
- % maximal activity [2, 7]: 84%
- EC50 [2, 7]: 0.5 nM
- fold more potent than native FGF21 ([2]; agonist activity of chimeric analog): approximately 5 fold

B2: FGF21 481K: analog of FGF21 481A where the C-terminal alanine is replaced with a lysine (protein)
chain: HPIPDSSPLLQFGGQVRQRYLYTDDAQQTECHLEIREDGTVGCAADQSPESLLQLKALKPGVIQILGVKTSRFLCQRPDGALYGSLHFDPEACSFREDLKEDGYNVYQSEAHGLPLHLPGDKSPHRKPAPRGPARFLPLPGLPPALPEPPGILAPQPPDVLSMDPFGLVGPSQGRSPSFEK
- IC50 [2]: 0.56 ± 0.06 nM

B3: FGF21 480A: modified FGF21 N-terminus fused to peptide 0480 (protein, listed as Homo sapiens)
chain: B2 chain with L161F, K181A
- IC50 [2]: 0.43 ± 0.04 nM

B4: FGF21 481A: modified FGF21 N-terminus fused to peptide 0481 (protein, listed as Homo sapiens)
chain: B2 chain with K181A
- IC50 [2]: 0.19 ± 0.08 nM

B5: FGF21 482K: analog of FGF21 482A where the C-terminal alanine is replaced with a lysine (protein)
chain: B2 chain with L161S
- IC50 [2]: 1.81 ± 0.18 nM

B6: FGF21 480K: analog of FGF21 480A where the C-terminal alanine is replaced with a lysine (protein)
chain: B2 chain with L161F
- IC50 [2]: 1.62 ± 0.54 nM

B7: FGF21 486K: analog of FGF21 486A where the C-terminal alanine is replaced with a lysine (protein)
chain: B2 chain with L161G, M163S
- IC50 [2]: 3.16 ± 0.56 nM

B8: FGF21 486A: modified FGF21 N-terminus fused to peptide 0486 (protein, listed as Homo sapiens)
chain: B2 chain with L161G, M163S, K181A
- IC50 [2]: 0.21 ± 0.03 nM

B9: FGF21 482A: modified FGF21 N-terminus fused to peptide 0482 (protein, listed as Homo sapiens)
chain: B2 chain with L161S, K181A
- IC50 [2]: 0.22 ± 0.03 nM

B10: FGF21 D164A: full length FGF21 with alanine at position 164 (protein)
chain: HPIPDSSPLLQFGGQVRQRYLYTDDAQQTEAHLEIREDGTVGGAADQSPESLLQLKALKPGVIQILGVKTSRFLCQRPDGALYGSLHFDPEACSFRELLLEDGYNVYQSEAHGLPLHLPGNKSPHRDPAPRGPARFLPLPGLPPALPEPPGILAPQPPDVGSSAPLSMVGPSQGRSPSYAS
- EC-50 [2, 7]: inactive

B11: FGF21 P171A: full length FGF21 with alanine at position 171 (protein)
chain: B10 chain with A164D, P171A
- EC50 [2, 7]: 4.5 nM
